Patent US20050215634A1 (priority 2003, published 2005)
Like-named read-outs stand apart in the source and are kept apart here.

Legend:
HVECs = format: cell-based, human
rabbit RBCs [1] = assay: Streptolysin S-induced hemolysis on RBC agar plates; format: cell-based; settings: rabbit blood agar plates containing GML, surface culture of Group A Streptococci
Procedure: The effect of GML on streptolysin S-induced hemolysis was assayed by direct culturing of Streptococci on the surface of the RBC-containing agar plates.

HIV-1 = format: cell-based
rabbit RBCs [2] = assay: Streptolysin O-induced hemolysis on RBC agar plates; format: cell-based; settings: GML 10 μg/ml in agar, Group A Streptococci stabbed into agar
Procedure: GML (10 μg/ml) was incorporated into culture plates containing solid agar and rabbit RBCs suspended in the agar. The effect of GML on streptolysin O-induced hemolysis was tested by stabbing the Group A Streptococci into the agar so as to permit the anaerobic growth of the bacteria beneath the surface of the agar and thereby allow streptolysin O to function.

[3] = GML 20 μg/ml + SPEA 100 μg/ml, 6 hours
[4] = GML 20 μg/ml + TSST-1 100 μg/ml, 6 hours

| Compound | IL-8 (pg/ml ± SE) (HVECs) | MIP-3α (pg/ml ± SE) (HVECs) | Streptolysin S-induced hemolysis (rabbit RBCs [1]) | Cells expressing HIV-1 p24 (HIV-1) | IL-8 (pg/ml ± SE) (HVECs; [3]) | MIP-3α (pg/ml ± SE) (HVECs; [3]) | IL-8 (pg/ml ± SE) (HVECs; [4]) | MIP-3α (pg/ml ± SE) (HVECs; [4]) | Streptolysin O-induced hemolysis of RBCs (rabbit RBCs [2]) | Cell viability (human PBMC) | Total number of cells versus control sample without GML (human PBMC) |
| --- | --- | --- | --- | --- | --- | --- | --- | --- | --- | --- | --- |
| Ovalbumin [reference compound] | 36 ± 1.5 pg/mL | 12 ± 1.8 pg/mL | – | – | – | – | – | – | – | – | – |
| CCCCCCCCCCCC(=O)OCC(O)CO (stereo not shown) [GML, glycerol monolaurate] | None Detected | None Detected | completely inhibited | rare and no cells expressing p24 | None Detected | None Detected | None Detected | None Detected | completely prevented hemolysis | preserved | significantly less |
